This is an account of results in US20220153751A1, “BIFUNCTIONAL COMPOUNDS” (BioTheryX, Inc., priority 2018, published 2022).

Holding throughout (type): cell-based
The target in one experiment is T1, CDK9 (Homo sapiens, UniProt P50750).
T1 construct: Whole cell extracts were prepared using RIPA buffer; endogenous in cells; host or cells: MV-4-11
Kind of experiment: CDK9 degradation assay (Western blot, MV-4-11 cells). To be noted: 6-8 h. Summed up: (§1)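 MV-4-11 cells (~10^6 cells/mL, RPMI 1640 with 10% FBS) were treated with compound or DMSO for 6-8 h. RIPA whole-cell lysates were run on SDS-PAGE, immunoblotted and detected with IRDye secondaries. % degradation is binned (<25%, 25–50%, 50–75%, ≥75%); CDK9 and CDK16 were tested at two concentrations.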
(In general: Immunoblotting shows a protein as a band on a membrane.)

A further experiment has as its system MOLM-13 cells. The experiment can be described thus: MOLM-13 cell viability assay (CellTiter-Glo). Conditions: Homo sapiens, MOLM-13, 72 h, 3 days, read-out: MOLM-13 Cell Viability % DMSO at 1 μM. Summed up: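 MOLM-13 cells at 2500 cells/well were exposed to compound for 3 days at 37 °C. Viability was read by CellTiter-Glo luminescence and expressed as % of DMSO control, binned A (<50%), B (50–<70%), C (70–<90%) or D (≥90%).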
For orientation: Cellular ATP, detected with luciferase, serves as a proxy for viable cell number.

The target of the next experiment is T2, CDK16 (Homo sapiens, UniProt Q00536).
T2 construct: Whole cell extracts were prepared using RIPA buffer; endogenous in cells; host or cells: MV-4-11
Kind of experiment: CDK16 degradation assay (Western blot, MV-4-11 cells). Conditions: 6-8 h. The method in brief:
as §1

Another experiment deals with T3, CK1α (Homo sapiens, UniProt P48729+Q96SW2).
T3 construct: Whole cell extracts were prepared using RIPA buffer; endogenous in cells; host or cells: MV-4-11
Kind of experiment: CK1α degradation assay (Western blot, MV-4-11 cells). To be noted: MV4-11, 6-8 h. On the procedure:
(§2) MV-4-11 cells were grown in RPMI 1640 media supplemented with 10% fetal bovine serum, streptomycin and penicillin.
(§3) Cells were cultured at approximately 10^6 cells per mL and incubated in DMSO or the indicated compound for 6-8 h. Whole cell extracts were prepared using RIPA buffer according to manufacturer's protocol (Pierce). Briefly, 3×10^6 cells were washed once in PBS, the cell pellets were resuspended in RIPA buffer and allowed to incubate for 15 minutes on ice. Cells debris was removed by centrifugation and the cleared whole cell lysates were transferred to new tubes for further analysis.
(§4) For Western blot analysis, whole cell protein extracts were separated on 4-12% SDS-polyacrylamide gels, transferred to nitrocellulose and probed with the indicated primary antibodies. Membranes were subsequently washed and probed with the appropriate IRDye secondary antibodies (LI-COR). The signal was detected using the Odyssey Imaging System (LI-COR).
(§5) The following antibodies were used in these studies: Anti-eRF3/GSPT1: Abcam, ab126090 (Cambridge, Mass.); Anti-Ikaros: Abcam, ab191394 (Cambridge, Mass.); Anti-CK1α: Abcam, ab108296 (Cambridge, Mass.); Anti-CDK9: Santa Cruz Biotechnology, sc13130 (Dallas, Tex.); Anti-CDK16: Millipore Sigma, HPA001366 (St. Louis, Mo.); 3-actin (8H10comD10) mouse monoclonal antibody: Cell Signaling Technology, #3700 (Danvers, Mass.); IRDye 680RD Goat anti-rabbit antibody: LI-COR, 926-68071 (Lincoln, Nebr.); IRDye 800CW Goat anti-mouse antibody: LI-COR, 926-32210 (Lincoln, Nebr.).
(§6) CDK9 activities are shown in Table 4 at two different concentrations. CDK16 activities are shown in Table 5 at two different concentrations. In each of Tables 1-5, the % degradation values are reported as “A”, “B”, “C”, or “D”. “A” represents a % degradation value of less than 25% (value <25%). “B” represents a % degradation value of equal to or more than 25% and less than 50% (25%≤value<50%). “C” represents a % degradation value of equal to or more than 50% and less than 75% (50%≤value<75%). “D” represents a % degradation value of equal to or more than 75% (value ≥75%).

The target of a further experiment is T4, IKAROS (Homo sapiens, UniProt Q13422+Q96SW2).
T4 construct: endogenous in cells; host or cells: MV-4-11
The experiment can be described thus: IKAROS degradation assay (Western blot, MV-4-11 cells). To be noted: MV4-11, 6-8 h. On the procedure:
as §2, §3, §4, §5, §6

A further experiment concerns the target T5, GSPT1 (Homo sapiens, UniProt P15170+Q96SW2).
T5 construct: Whole cell extracts were prepared using RIPA buffer; endogenous in cells; host or cells: MV-4-11
Kind of experiment: GSPT1 degradation assay (Western blot, MV-4-11 cells). Conditions: MV4-11, 6-8 h. How it is done: as §2, §3, §4, §5, §6

A further experiment concerns IL-1β. The experiment can be described thus: IL-1β inhibition assay, LPS-induced PBMCs / CD14+ monocytes (Meso Scale). To be noted: 1 h pretreatment, 100 ng/mL LPS 18-24 h. On the procedure:
(§7) Either frozen primary blood mononuclear cells (PBMCs) or frozen CD14+ mobilized peripheral blood monocytes were purchased from AllCells (PB003F, Normal Peripheral Blood MNC (Alameda, Calif.)). Cells were quick thawed, washed 1-time with RPMI-1640 (10% FBS/1% Pen-Strep) and plated in 96 well plates at 200,000 cells per well. Cells were pretreated with DMSO only or with the indicated compound for 1 h and then induced with 100 ng/mL lipopolysaccharide (LPS) for 18-24 h. The supernatant was analyzed for IL-1β, IL-6, and TNFα, using Meso Scale assay according to manufacturer's protocol. The negative control wells were treated with DMSO.
(§8) In Table 6, the % inhibition values are reported as “A”, “B”, “C”, or “D”. “A” represents a % inhibition value of less than 50% (value <50%). “B” represents a % inhibition value of equal to or more than 50% and less than 70% (50%≤value<70%). “C” represents a % inhibition value of equal to or more than 70% and less than 90% (70%≤value<90%). “D” represents a % inhibition value of equal or more than 90% (value ≥90%). In Table 7, the fold-change values are reported as “A”, “B”, “C”, or “D”. “A” represents a fold-change value of equal to or less than 0.1 (value ≤0.1). “B” represents a fold-change value of more than 0.1 and equal to or less than 0.5 (0.1<value≤0.5). “C” represents a fold-change value of more than 0.5 and equal to or less than 1 (0.5<value≤1). “D” represents a fold-change value of more than 1 (value >1).

The test system of another experiment is TNF-α. The experiment can be described thus: TNF-α inhibition assay, LPS-induced PBMCs / CD14+ monocytes (Meso Scale). To be noted: 1 h pretreatment, 100 ng/mL LPS 18-24 h. On the procedure:
as §7, §8

The test system of another experiment is IL-6. Kind of experiment: IL-6 inhibition assay, LPS-induced PBMCs / CD14+ monocytes (Meso Scale). To be noted: 1 h pretreatment, 100 ng/mL LPS 18-24 h. On the procedure:
as §7, §8

T5 sequence (P15170 whole entry): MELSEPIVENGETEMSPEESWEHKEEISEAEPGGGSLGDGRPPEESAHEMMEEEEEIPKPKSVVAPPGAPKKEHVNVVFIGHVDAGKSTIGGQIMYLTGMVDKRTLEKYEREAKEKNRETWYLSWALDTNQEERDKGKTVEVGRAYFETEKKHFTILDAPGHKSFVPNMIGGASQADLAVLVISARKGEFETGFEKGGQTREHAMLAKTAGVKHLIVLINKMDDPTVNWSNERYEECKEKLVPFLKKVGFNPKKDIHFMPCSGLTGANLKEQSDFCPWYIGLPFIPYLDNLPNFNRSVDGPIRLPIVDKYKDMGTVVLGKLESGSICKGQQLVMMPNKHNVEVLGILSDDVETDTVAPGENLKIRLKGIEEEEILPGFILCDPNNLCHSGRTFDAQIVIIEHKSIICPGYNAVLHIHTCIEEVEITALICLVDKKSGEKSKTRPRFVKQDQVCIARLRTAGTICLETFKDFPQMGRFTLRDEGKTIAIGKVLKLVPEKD
T5 sequence (Q96SW2 whole entry): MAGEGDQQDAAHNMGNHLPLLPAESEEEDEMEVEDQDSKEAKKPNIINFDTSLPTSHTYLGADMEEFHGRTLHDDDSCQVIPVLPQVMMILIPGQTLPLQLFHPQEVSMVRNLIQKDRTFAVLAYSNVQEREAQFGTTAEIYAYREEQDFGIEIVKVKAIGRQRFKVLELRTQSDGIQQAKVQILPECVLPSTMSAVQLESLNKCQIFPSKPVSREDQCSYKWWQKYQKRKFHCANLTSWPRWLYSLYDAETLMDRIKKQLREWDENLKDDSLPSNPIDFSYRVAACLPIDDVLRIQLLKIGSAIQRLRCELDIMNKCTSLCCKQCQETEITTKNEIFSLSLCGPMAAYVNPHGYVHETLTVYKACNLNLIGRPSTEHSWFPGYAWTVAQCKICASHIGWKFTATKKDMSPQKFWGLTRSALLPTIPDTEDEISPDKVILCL
T5 sequence (Q16531 whole entry partner): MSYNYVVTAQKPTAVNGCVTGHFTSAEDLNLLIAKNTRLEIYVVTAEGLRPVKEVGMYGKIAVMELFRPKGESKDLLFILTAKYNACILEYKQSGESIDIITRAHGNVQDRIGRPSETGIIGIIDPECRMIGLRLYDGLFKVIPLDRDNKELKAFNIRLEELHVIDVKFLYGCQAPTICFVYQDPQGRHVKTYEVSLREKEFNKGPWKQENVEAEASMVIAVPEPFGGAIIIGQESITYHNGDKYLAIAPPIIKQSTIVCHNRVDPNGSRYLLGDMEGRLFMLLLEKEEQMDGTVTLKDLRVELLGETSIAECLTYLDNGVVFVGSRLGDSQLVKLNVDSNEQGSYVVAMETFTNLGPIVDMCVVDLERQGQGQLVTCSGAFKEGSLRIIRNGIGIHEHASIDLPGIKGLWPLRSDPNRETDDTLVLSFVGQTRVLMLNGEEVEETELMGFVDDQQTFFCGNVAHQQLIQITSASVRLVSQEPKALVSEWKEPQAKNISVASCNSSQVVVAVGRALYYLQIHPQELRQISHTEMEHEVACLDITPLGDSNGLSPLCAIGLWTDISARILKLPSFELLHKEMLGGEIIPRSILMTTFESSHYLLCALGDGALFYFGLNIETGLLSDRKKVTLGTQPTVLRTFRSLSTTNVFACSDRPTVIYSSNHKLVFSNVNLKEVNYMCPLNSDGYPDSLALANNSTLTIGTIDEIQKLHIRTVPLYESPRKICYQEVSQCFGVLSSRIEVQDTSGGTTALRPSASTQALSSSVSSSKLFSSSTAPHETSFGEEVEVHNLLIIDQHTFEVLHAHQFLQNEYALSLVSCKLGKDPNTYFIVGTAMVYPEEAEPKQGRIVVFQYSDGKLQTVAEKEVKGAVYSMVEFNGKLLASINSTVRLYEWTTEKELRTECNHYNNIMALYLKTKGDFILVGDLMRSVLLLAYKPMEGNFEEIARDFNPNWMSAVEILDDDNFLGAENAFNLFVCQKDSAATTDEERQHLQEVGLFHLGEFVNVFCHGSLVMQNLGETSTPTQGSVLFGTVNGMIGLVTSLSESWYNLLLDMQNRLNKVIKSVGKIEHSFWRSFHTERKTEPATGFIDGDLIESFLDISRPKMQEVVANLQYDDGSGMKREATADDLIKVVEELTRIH
T3 sequence (P48729 whole entry): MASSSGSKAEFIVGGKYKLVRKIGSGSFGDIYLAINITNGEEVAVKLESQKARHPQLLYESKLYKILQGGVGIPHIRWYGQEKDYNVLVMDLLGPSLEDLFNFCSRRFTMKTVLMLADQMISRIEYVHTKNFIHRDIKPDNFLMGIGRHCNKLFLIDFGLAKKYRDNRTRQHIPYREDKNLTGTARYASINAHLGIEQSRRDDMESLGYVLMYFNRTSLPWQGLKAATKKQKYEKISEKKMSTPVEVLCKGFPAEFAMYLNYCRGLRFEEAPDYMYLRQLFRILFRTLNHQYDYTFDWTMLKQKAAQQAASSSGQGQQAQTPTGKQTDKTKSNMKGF
T3 sequence (Q96SW2 whole entry): as the sequence (Q96SW2 whole entry) above
T3 sequence (Q16531 whole entry partner): as the sequence (Q16531 whole entry partner) above
T4 sequence (Q13422 whole entry): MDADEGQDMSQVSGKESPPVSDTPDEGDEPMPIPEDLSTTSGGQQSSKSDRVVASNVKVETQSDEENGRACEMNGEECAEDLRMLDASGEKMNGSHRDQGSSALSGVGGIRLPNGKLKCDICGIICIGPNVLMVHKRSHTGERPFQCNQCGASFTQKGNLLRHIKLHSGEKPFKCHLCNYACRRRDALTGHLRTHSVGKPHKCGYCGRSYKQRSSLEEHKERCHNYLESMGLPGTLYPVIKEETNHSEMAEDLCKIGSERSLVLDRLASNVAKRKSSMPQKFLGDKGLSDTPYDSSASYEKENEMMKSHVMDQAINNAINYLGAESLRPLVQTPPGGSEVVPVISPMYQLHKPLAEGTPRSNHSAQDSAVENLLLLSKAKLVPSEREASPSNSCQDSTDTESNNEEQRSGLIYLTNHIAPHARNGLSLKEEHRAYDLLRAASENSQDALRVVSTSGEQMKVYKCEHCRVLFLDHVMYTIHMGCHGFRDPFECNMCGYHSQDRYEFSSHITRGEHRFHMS
T4 sequence (Q96SW2 whole entry): as the sequence (Q96SW2 whole entry) above
T4 sequence (Q16531 whole entry partner): as the sequence (Q16531 whole entry partner) above
T2 sequence (Q00536 whole entry): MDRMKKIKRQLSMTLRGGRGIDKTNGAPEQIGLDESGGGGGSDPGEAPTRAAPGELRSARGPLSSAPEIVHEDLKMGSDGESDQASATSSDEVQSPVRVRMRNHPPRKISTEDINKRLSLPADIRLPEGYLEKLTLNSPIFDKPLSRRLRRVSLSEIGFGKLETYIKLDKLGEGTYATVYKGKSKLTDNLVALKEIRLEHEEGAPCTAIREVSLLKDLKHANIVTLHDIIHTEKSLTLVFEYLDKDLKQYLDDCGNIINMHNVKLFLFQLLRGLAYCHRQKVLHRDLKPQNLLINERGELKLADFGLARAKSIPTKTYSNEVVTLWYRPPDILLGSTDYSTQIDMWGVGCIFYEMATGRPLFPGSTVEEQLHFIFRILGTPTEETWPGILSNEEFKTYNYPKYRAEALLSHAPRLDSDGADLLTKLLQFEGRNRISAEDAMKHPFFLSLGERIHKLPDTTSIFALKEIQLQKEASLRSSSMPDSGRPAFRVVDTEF
T1 sequence (P50750 whole entry): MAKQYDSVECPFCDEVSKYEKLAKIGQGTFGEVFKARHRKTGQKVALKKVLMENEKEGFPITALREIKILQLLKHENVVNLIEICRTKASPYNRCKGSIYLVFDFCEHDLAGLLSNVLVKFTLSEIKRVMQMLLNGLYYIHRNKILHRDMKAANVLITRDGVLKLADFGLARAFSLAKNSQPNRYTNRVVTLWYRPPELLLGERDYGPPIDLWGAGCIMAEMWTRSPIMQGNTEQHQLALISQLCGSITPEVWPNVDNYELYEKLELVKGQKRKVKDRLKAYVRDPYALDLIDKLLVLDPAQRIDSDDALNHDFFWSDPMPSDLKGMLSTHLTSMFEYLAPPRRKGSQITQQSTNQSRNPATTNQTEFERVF

In the case of `Cn1ncc(-c2nc(N[C@H]3CC[C@H](NCCCCCCCCNC(=O)NCc4cc5c(s4)C(=O)N(C4CCC(=O)NC4=O)C5)CC3)ncc2Cl)c1CC1CC1` (some centres unmarked) [Compound 22, 1-(8-(((1r,4r)-4-((5-chloro-4-(5-(cyclopropylmethyl)-1-methyl-1H-pyrazol-4-yl)pyrimidin-2-yl)amino)cyclohexyl)amino)octyl)-3-((5-(2,6-dioxopiperidin-3-yl)-6-oxo-5,6-dihydro-4H-thieno[2,3-c]pyrrol-2-yl)methyl)urea], the Dmax at 0.1 µM is 50 to 75% at CDK9 (MV4-11, 0.1 μM) and under 25% at CDK16 (MV4-11, 0.1 μM). The Dmax at 1 µM on CDK9 (MV4-11, 1 μM) was at least 75%; at CDK16 (MV4-11, 1 μM) it was 50 to 75%; on CK1α, under 25%. Further, the viability at 1 µM in the experiment with MOLM-13 cells is over 90%.
With `Cn1ncc(-c2nc(N[C@H]3CC[C@H](NC(=O)CCCCCCNCC(=O)NCc4ccc(COc5cccc6c5CN(C5CCC(=O)NC5=O)C6=O)cc4)CC3)ncc2Cl)c1CC1CC1` (some centres unmarked) [Compound 8, N-((1r,4r)-4-((5-chloro-4-(5-(cyclopropylmethyl)-1-methyl-1H-pyrazol-4-yl)pyrimidin-2-yl)amino)cyclohexyl)-7-((2-((4-(((2-(2,6-dioxopiperidin-3-yl)-1-oxoisoindolin-4-yl)oxy)methyl)benzyl)amino)-2-oxoethyl)amino)heptanamide], the maximal degradation (Dmax) at 1 µM is 50 to 75% at IKAROS and under 25% at GSPT1. Moreover, the viability at 1 µM in the experiment with MOLM-13 cells is 70 to 90%. Also, the inhibition at 1 µM in the experiment with IL-1β, in the experiment with TNF-α and in the experiment on IL-6 was under 50% each time.
For `Cn1ncc(-c2nc(N[C@H]3CC[C@H](NCCOCCOCCOCCNCc4ccc(OCc5scc6c5CN([C@H]5CCC(=O)NC5=O)C6=O)cc4)CC3)ncc2Cl)c1CC1CC1` [Compound 69, (S)-3-(1-((4-(13-(((1r,4r)-4-((5-chloro-4-(5-(cyclopropylmethyl)-1-methyl-1H-pyrazol-4-yl)pyrimidin-2-yl)amino)cyclohexyl)amino)-5,8,11-trioxa-2-azatridecyl)phenoxy)methyl)-4-oxo-4H-thieno[3,4-c]pyrrol-5(6H)-yl)piperidine-2,6-dione], the Dmax at 1 µM at IKAROS was at least 75%; at CK1α, 50 to 75%. Also, in the experiment with MOLM-13 cells, the viability at 1 µM is under 50%. For the same molecule, the values for the inhibition at 1 µM with IL-1β, in the experiment on TNF-α and in the experiment on IL-6 were 70 to 90%, 70 to 90% and under 50%, respectively.
In the case of `CC(C)(C)c1cnc(CSc2cnc(NC(=O)C3CCN(CC(=O)NCCCCCNC(=O)NCc4scc5c4CN(C4CCC(=O)NC4=O)C5=O)CC3)s2)o1` (centres unmarked) [Compound 11, N-(5-(((5-(tert-butyl)oxazol-2-yl)methyl)thio)thiazol-2-yl)-1-(2-((5-(3-((5-(2,6-dioxopiperidin-3-yl)-4-oxo-5,6-dihydro-4H-thieno[3,4-c]pyrrol-1-yl)methyl)ureido)pentyl)amino)-2-oxoethyl)piperidine-4-carboxamide], the viability at 1 µM in the experiment on MOLM-13 cells is over 90%. The Dmax at 1 µM at GSPT1 and on CK1α was 25 to 50% in each case.
Turning to `Cn1ncc(-c2nc(N[C@H]3CC[C@H](NCCOCCOCCOCCNCc4cc5c(s4)C(=O)N(C4CCC(=O)NC4=O)C5)CC3)ncc2Cl)c1CC1CC1` (some centres unmarked) [Compound 66, 3-(2-(13-(((1r,4r)-4-((5-chloro-4-(5-(cyclopropylmethyl)-1-methyl-1H-pyrazol-4-yl)pyrimidin-2-yl)amino)cyclohexyl)amino)-5,8,11-trioxa-2-azatridecyl)-6-oxo-4,6-dihydro-5H-thieno[2,3-c]pyrrol-5-yl)piperidine-2,6-dione], in the experiment with MOLM-13 cells, the viability at 1 µM was in the range of 50 to 70%. Further, the Dmax at 1 µM at GSPT1 was in the range of 50 to 75%. For the same molecule, the inhibition at 1 µM in the experiment with IL-1β, with TNF-α and with IL-6 was under 50% in each case.
`CC(C)(C)c1cnc(CSc2cnc(NC(=O)C3CCN(CC(=O)NCCOCCNC(=O)NCc4ccc5c(c4)CN([C@H]4CCCC(=O)NC4=O)C5=O)CC3)s2)o1` [Compound 6, (S)—N-(5-(((5-(tert-butyl)oxazol-2-yl)methyl)thio)thiazol-2-yl)-1-(1-(2-(2,7-dioxoazepan-3-yl)-1-oxoisoindolin-5-yl)-3,11-dioxo-7-oxa-2,4,10-triazadodecan-12-yl)piperidine-4-carboxamide]: the results for the Dmax at 1 µM on IKAROS and on CK1α were 25 to 50% and under 25%, respectively. In the experiment on MOLM-13 cells, the viability at 1 µM is under 50%. Further, the inhibition at 1 µM with IL-1β was under 50%; in the experiment on TNF-α, under 50%; in the experiment on IL-6, 50 to 70%.
Regarding `CC(C)(C)c1cnc(CSc2cnc(NC(=O)C3CCN(CC(=O)NCCOCCNC(=O)NCc4cccc5c4CN([C@H]4CCCC(=O)NC4=O)C5=O)CC3)s2)o1` [Compound 7, (S)—N-(5-(((5-(tert-butyl)oxazol-2-yl)methyl)thio)thiazol-2-yl)-1-(1-(2-(2,7-dioxoazepan-3-yl)-1-oxoisoindolin-4-yl)-3,11-dioxo-7-oxa-2,4,10-triazadodecan-12-yl)piperidine-4-carboxamide], the Dmax at 1 µM at IKAROS and on CK1α was under 25% each time. Also, the viability at 1 µM in the experiment with MOLM-13 cells was under 50%. The inhibition at 1 µM in the experiment with IL-1β, in the experiment with TNF-α and with IL-6 was under 50% in each case.
As to `CC(C)(C)c1cnc(CSc2cnc(NC(=O)C3CCN(CC(=O)NCCCCNCc4ccc(OCc5scc6c5CN([C@H]5CCC(=O)NC5=O)C6=O)cc4)CC3)s2)o1` (stereo in doubt) [Compound 54, N-(5-(((5-(tert-butyl)oxazol-2-yl)methyl)thio)thiazol-2-yl)-1-(2-((4-((4-((5-(2,6-dioxopiperidin-3-yl)-4-oxo-5,6-dihydro-4H-thieno[3,4-c]pyrrol-1-yl)methoxy)benzyl)amino)butyl)amino)-2-oxoethyl)piperidine-4-carboxamide], the Dmax at 1 µM on IKAROS and at CK1α was 50 to 75% in each case. The viability at 1 µM in the experiment on MOLM-13 cells is over 90%.

The Dmax is the largest share of the target that was removed. A high value points to a fuller loss of target. As usually defined, the viability is a read-out of living cells in per cent, often relative to untreated cells. The inhibition is the relative decrease from the control value, in per cent.
